Consider five molecules from patent US12172965B2, “Drug conjugate comprising quinoline derivatives” (UNIVERSITE PARIS-SACLAY, priority 2018, dated 2024).

Read-outs that look alike come from different tables or passages of the source.

For series [1], the system named is SKBr3 (breast tumour, Her2 overexpression). Put plainly: Antiproliferative activity (IC50), CellTiter Glo, SKBr3. Type of series: cell-based, human. The note with it: for IC50: Homo sapiens, SK-BR-3. The source says:
(§1) The IC50 (as per accepted terminology) activities of the compounds according to the invention 4-((3-amino-4-methoxyphenyl)(methyl)amino) quinoline-2-carbonitrile (ICQN-1); 5-(5-((2-cyanoquinolin-4-yl)(methyl)amino)-2-methoxyphenyl)-N-hydroxypent-4-ynamide (ICQN-2); and (E)-3-(5-((2-cyanoquinolin-4-yl)(methyl)amino)-2-methoxyphenyl)-N-hydroxyacrylamide (ICQN-3) were compared with compounds of the prior art and with a commercial and clinical reference compound, in particular MMAE (monomethylauristatin E). The IC50 activities were measured on various different cancer cell lines HCT116 (colorectal tumour), A549 (non-small cell lung cancer), NCI-N87 (gastric tumour), Mia-Paca-2 (pancreatic tumour), K562R (chronic myeloid leukemia), SKOV3 (ovarian tumour), SKBr3 (breast tumour, Her2 overexpression), MCF7 (breast tumour) and MDA-MB231 (breast tumour).
(§2) The cancer cell lines were obtained from the American Culture Collection (ATCC, Rockville, MD) or from the German collection of microorganisms and cell cultures of the Leibniz Institute (DSMZ, Braunschweig-Germany) or from the European collection of cell cultures (ECACC, England). The cancer cell lines were cultured according to the supplier's instructions.
(§3) The HCT-116 human colorectal carcinoma, SK-BR3 breast carcinoma, and SK-OV-3 ovarian carcinoma cells were cultured in Gibco McCoy's 5A medium supplemented with 10% foetal calf serum (FCS) and 1% glutamine.
(§4) The cells were counted using a Vi-cell XR (Beckman Coulter) and the cell viability was assessed by using 0.25% trypan blue dye exclusion assay. The cells were tested for the presence of mycoplasmas prior to the experiments with the Mycoplasma PCR detection kit (Applied Biological Materials Inc., Canada) according to the manufacturer's instructions, and only mycoplasma-free cells were used for the study. The cell lines were maintained at 37° C. in a humidified atmosphere containing 5% CO2.
(§5) After 24 hours of culturing, the cells were treated with the tested compounds at 10 different final concentrations. Each concentration was obtained from serial dilutions in culture medium starting from the stock solution. The control cells were treated with the carrier. The experiments were carried out in triplicate.
(§6) The measurements were performed after 72 hours of treatment using the CellTiter Glo assay (Promega) which makes it possible to measure through bioluminescence (quantification of adenosine triphosphate—ATP) the number of living cells, by using a PolarStar Omega microplate reader (BMG-Labtech).
(§7) The dose-response curves were plotted with the Graph Prism software application and the IC50 values were calculated using the Graph Prism software based on polynomial curves (four or five parameter logistic equations).
(In general: In ATP-based viability assays light output follows the ATP content of the culture.)

The test system of series [2] is Mia-Paca-2 (pancreatic tumour). Kind of series: Antiproliferative activity (IC50), CellTiter Glo, Mia-Paca-2. The format is cell-based. The following applies: for IC50: Homo sapiens, MIA PaCa-2.
Source text: as §1, §2
(§8) The A549 lung carcinoma cells, K562R myeloid leukemia cells, and the NCI-N87 gastric carcinoma cells were cultured in Gibco Roswell Park Memorial Institute (RPMI) 1640 medium supplemented with 10% foetal calf serum (FCS) and 1% glutamine. The Mia-Paca2 carcinoma cells were cultured in Gibco Dulbecco's Modified Eagle Medium (DMEM) supplemented with 10% foetal calf serum (FCS) and 1% glutamine.
as §4, §5, §6, §7

In series [3] the test system is K562R (chronic myeloid leukemia). Put plainly: Antiproliferative activity (IC50), CellTiter Glo, K562R. The format is cell-based. The note with it: for IC50: Homo sapiens, K-562R.
Source text: as §1, §2, §8, §4, §5, §6, §7
The K562R (chronic myeloid leukemia) cells have an MDR profile that allows them to be resistant to several chemotherapeutic compounds including the reference compound MMAE.

A further series relates to SKOV3 (ovarian tumour). Kind of series: Antiproliferative activity (IC50), CellTiter Glo, SKOV3. Type of series: cell-based, human. The note with it: for IC50: Homo sapiens, SK-OV-3.
Source text: as §1, §2, §3, §4, §5, §6, §7

For the next series, the system named is NCI-N87 (gastric tumour). Kind of series: Antiproliferative activity (IC50), CellTiter Glo, NCI-N87. The format is cell-based. The following applies: for IC50: Homo sapiens, NCI-N87.
Source text: as §1, §2, §8, §4, §5, §6, §7

For a further series, the system named is HCT116 cell line. The following applies: comparison of molecules Ia and Ib; cited from earlier work.
In series [4] the test system is MDA-MB231 (breast tumour). Put plainly: Antiproliferative activity (IC50), CellTiter Glo, MDA-MB231. Type of series: cell-based. The following applies: unconjugated; for IC50: Homo sapiens, MDA-MB-231, free, 72 hours of treatment, read-out: MDA-MB231 CI50.
Source text: as §1, §2
(§9) The breast adenocarcinoma cells MDA-MB231 and MCF7 were cultured in Gibco RPMI 1640 culture medium supplemented with 10% foetal calf serum (FCS) and 1% glutamine.
as §4, §5, §6, §7

The next series deals with MCF7 (breast tumour). Put plainly: Antiproliferative activity (IC50), CellTiter Glo, MCF7. The format is cell-based. The following applies: unconjugated; for IC50: Homo sapiens, MCF7, free, 72 hours of treatment, read-out: MCF7 CI50.
Source text: as §1, §2, §9, §4, §5, §6, §7

In series [5] the test system is HCT116 (colorectal tumour). Put plainly: Antiproliferative activity (IC50), CellTiter Glo, HCT116. The format is cell-based, human. The following applies: for IC50: Homo sapiens, HCT-116.
Source text: as §1, §2, §3, §4, §5, §6, §7

Series [6] concerns A549 (non-small cell lung cancer). Put plainly: Antiproliferative activity (IC50), CellTiter Glo, A549. The format is cell-based. The note with it: for IC50: Homo sapiens, A549.
Source text: as §1, §2, §8, §4, §5, §6, §7

The mark [7] stands for this setting: free, unconjugated, 72 hours of treatment, read-out: SKBr3 IC50.
The mark [8] stands for this setting: nM given only in VB118 cells, read-out: SKBR3 (antiproliferative activity, Table 6).
The mark [9] stands for this setting: free, unconjugated, 72 hours of treatment, read-out: Mia-Paca-2 IC50.
Where [10] appears, read: nM given only in VB118 cells, read-out: Mia-Paca-2 (antiproliferative activity, Table 6).
Setting [11] is: free, unconjugated, 72 hours of treatment, read-out: K562R IC50.
Setting [12] is: nM given only in VB118 cells, read-out: K562R (antiproliferative activity, Table 6).
Where [13] appears, read: free, unconjugated, 72 hours of treatment, read-out: SKOV3 IC50.
[14] abbreviates: nM given only in VB118 cells, read-out: SKOV-3 (antiproliferative activity, Table 6).
[15] abbreviates: free, unconjugated, 72 hours of treatment, read-out: NIC-N87 IC50.
Setting [16] is: nM given only in VB118 cells, read-out: NCI-N87 (antiproliferative activity, Table 6).
[17] abbreviates: resistant cancer cells, MDR profile, read-out: K562R (PgP+) IC50.
[18] abbreviates: resistant cancer cells, MDR profile.
Setting [19] is: ratio versus MMAE, unconjugated.
Setting [20] is: ratio versus prior-art payload ICQO-1.

As to `CCOc1ccc(N(C)c2cc(C#N)nc3ccccc23)cc1N` [ICQN-2, 4-((3-amino-4-ethoxyphenyl)(methyl)amino)quinoline-2-carbonitrile], the IC50 in series [1] (setting [7]) was determined as 0.38 nM; in series [1] (setting [8]), 0.38 nM; in series [2] (setting [9]), 0.29 nM; in series [2] (setting [10]) it was 0.29 nM; in series [3] (setting [11]) it was 0.36 nM; in series [3] (setting [12]) it was 0.36 nM. The IC50 came to 0.59 nM with SKOV3 (ovarian tumour) (setting [13]), 0.59 nM with SKOV3 (ovarian tumour) (setting [14]), 0.93 nM in the series on NCI-N87 (gastric tumour) (setting [15]) and 0.93 nM with NCI-N87 (gastric tumour) (setting [16]).
As to `CN(c1ccc2c(c1)c1ccccc1n2C)c1cc(C#N)nc2ccccc12` [Ib], the “drop in cytotoxic activity (factor) on replacing Me by CN at position 2 of quinoline” value with HCT116 cell line is 170.
Turning to `C=C(c1ccc(OC)c(N)c1)c1cc(C)nc2ccccc12` [ICQO-1, reference compound], in [3] (setting [17]), the IC50 worked out at 1.98 nM. For the same molecule, the “Ratio vs MMAE, K562R (PgP+)” value in series [3] (setting [18]) amounted to 17.
Turning to `COc1ccc(N(C)c2cc(C#N)nc3ccccc23)cc1/C=C/C(=O)NO` [ICQN-3, (E)-3-(5-((2-cyanoquinolin-4-yl)(methyl)amino)-2-methoxyphenyl)-N-hydroxyacrylamide], the IC50 was determined as 1.78 nM in series [1] (setting [7]); 0.94 nM in series [2] (setting [9]); 0.44 nM in series [4]; 0.56 nM in [3] (setting [11]); 2.64 nM in the series with SKOV3 (ovarian tumour) (setting [13]); 0.78 nM with MCF7 (breast tumour). The IC50 in the series on NCI-N87 (gastric tumour) (setting [15]) amounted to 0.1 nM.
On to `COc1ccc(N(C)c2cc(C#N)nc3ccccc23)cc1N` [ICQN-1, 4-((3-amino-4-methoxyphenyl)(methyl)amino) quinoline-2-carbonitrile], for which the IC50 was 0.36 nM in series [1] (comparative data 13b / ICQN-1, unit inferred, read-out: SKBr3 (antiproliferative activity, Table 3)); 0.36 nM in series [1] (setting [7]); 0.36 nM in series [1] (setting [8]); 0.23 nM in [5] (comparative data 13b / ICQN-1, unit inferred, read-out: HCT116 (antiproliferative activity, Table 3)); 0.23 nM in [5] (free, unconjugated, 72 hours of treatment, read-out: HCT116 IC50); 0.49 nM in [2] (comparative data 13b / ICQN-1, unit inferred, read-out: Mia-Paca2 (antiproliferative activity, Table 3)). Moreover, the IC50 in [2] (setting [9]) is 0.49 nM; in series [2] (setting [10]) it was 0.49 nM; in series [6] (comparative data 13b / ICQN-1, unit inferred, read-out: A549 (antiproliferative activity, Table 3)) it was 0.72 nM; in series [6] (free, unconjugated, 72 hours of treatment, read-out: A549 IC50), 0.72 nM; in series [4], 0.34 nM; in series [3] (comparative data 13b / ICQN-1, unit inferred, read-out: K562R (antiproliferative activity, Table 3)), 0.47 nM. Besides, the IC50 is 0.47 nM in [3] (setting [11]); 0.47 nM in series [3] (setting [12]); 0.47 nM in series [3] (setting [17]); 0.44 nM with SKOV3 (ovarian tumour) (comparative data 13b / ICQN-1, unit inferred, read-out: SKOV3 (antiproliferative activity, Table 3)); 0.44 nM in the series with SKOV3 (ovarian tumour) (setting [13]); 0.44 nM with SKOV3 (ovarian tumour) (setting [14]). Further, the IC50 in the series with MCF7 (breast tumour) is 0.17 nM; in the series on NCI-N87 (gastric tumour) (comparative data 13b / ICQN-1, unit inferred, read-out: NCI-N87 (antiproliferative activity, Table 3)), 0.3 nM; with NCI-N87 (gastric tumour) (setting [15]), 0.3 nM; with NCI-N87 (gastric tumour) (setting [16]) it was 0.3 nM. Moreover, in series [1] (ratio versus compound 13b), the “Ratio of activity 13b vs ICQN-1, SKBr3” value came to 6. Also, the “IC50 ratio MMAE/ICQN-1 (fold potency of ICQN-1 over MMAE), HCT116” value in series [5] (setting [19]) came to 7. Besides, the “Ratio of activity 13b vs ICQN-1, HCT116” value in series [5] (ratio versus compound 13b) was approximately 10. Also, the “IC50 ratio ICQN-1 vs ICQO-1, HCT-116” value in [5] (setting [20]) turned out to be 44. Besides, the “IC50 Ratio ICQN1/MMAE, Mia-Paca-2” value in [2] (setting [19]) worked out at 6. Also, the “Ratio of activity 13b vs ICQN-1, Mia-Paca2” value in series [2] (ratio versus compound 13b) was 2. The “Potency ratio of ICQN-1 vs MMAE (MMAE IC50 / ICQN-1 IC50), A549” value in series [6] (setting [19]) came to 6. Besides, the “Ratio of activity 13b vs ICQN-1, A549” value in [6] (ratio versus compound 13b) stood at 1. The “IC50 Ratio ICQN1/MMAE, MDA-MB231” value in [4] (ratio versus MMAE) is 4. Moreover, the “Ratio of activity 13b vs ICQN-1, K562R” value in series [3] (ratio versus compound 13b) is given as 8. In series [3] (setting [18]), the “Ratio vs ICQO-1, K562R (PgP+)” value is recorded as 4.2. Moreover, the “Ratio vs MMAE, K562R (PgP+)” value in series [3] (setting [18]) stood at 74. In addition, the “Ratio of activity 13b vs ICQN-1, SKOV3” value with SKOV3 (ovarian tumour) (ratio versus compound 13b) is on record as 3. Besides, in the series on SKOV3 (ovarian tumour) (setting [20]), the “IC50 ratio ICQN-1 vs ICQO-1, SKOV-3” value was found to be 3. In addition, the “IC50 Ratio ICQN1/MMAE, MCF7” value in the series on MCF7 (breast tumour) (ratio versus MMAE) is listed as 3. The “IC50 Ratio ICQN1/MMAE, NCI-N87” value with NCI-N87 (gastric tumour) (setting [19]) worked out at 22. For the same molecule, in the series with NCI-N87 (gastric tumour) (ratio versus compound 13b), the “Ratio of activity 13b vs ICQN-1, NCI-N87” value was determined as 15.
